Measured values from patent US9339034B2, “Use of thaxtomin for selective control of rice and aquatic based weeds” (MARRONE BIO INNOVATIONS, INC., priority 2009, dated 2016).

What was measured:
CYI = test: Greenhouse pot study, weed control; format: in vivo, Cyperus iria
LEF = test: Greenhouse pot study, weed control; format: in vivo
ECC = test: Greenhouse pot study, weed control; format: in vivo, Echinochloa colonum
Source text: (§1) Moderate suppression (60%) was noted on Echinochloa colonum at 500 g a.i. per hectare.

AMM = test: Greenhouse pot study, weed control; format: in vivo, Ammania spp.
Source text: as §1

SCM = test: Greenhouse pot study, weed control; format: in vivo, Scirpus mucronatus
Source text: The activity on susceptible and resistant biotypes of Scirpus mucronatus was somewhat weaker (70 to 75%) than that observed for other sedge weeds in this study.

direct-seeded rice = test: First study, crop safety; format: in vivo; conditions: rates up to 750 g a.i. per hectare
Echinochloa colonum = test: First study, weed control; format: in vivo; conditions: 500-1000 g a.i. per hectare
Alisma plantago-aquatica = test: Pot study, spray of pure thaxtomin A solutions, % control; format: in vivo, common waterplantain; Alisma plantago-aquatica; conditions: for % control: Alisma plantago-aquatica
Method: (§2) A pot study was conducted to test the phytotoxicity of thaxtomin A on broadleaved, sedge and grass weeds. Seeds of two most common broadleaf (redstem; Ammannia spp. and common waterplantain; Alisma plantago-aquatica), sedge (smallflower umbrella sedge; Cyperus diiformis) and grass (sprangletop: Leptochloa uninervia) weeds each were planted in a plastic pots filled with heavy clay soil. The less than 1-inch tall plants grown under growth lights (12-h light/12-h dark) at 28° C. were sprayed with pure thaxtomin A solutions containing 0.05, 0.1, 0.2, and 0.4 mg thaxtomin A per mL of solvent (4% ethanol and 0.2% non-ionic surfactant). A solution of 4% ethanol+0.2% non-ionic surfactant without thaxtomin A was used as a control treatment. Same treatments were applied to three-inch tall rice plants grown submerged under growth lights at 28° C. […] All treatments were applied in three replicates. Treated plants were kept at 28° C. under growth lights and observed at three time points—5, 12 and 21 days after treatment—for visual symptoms of phytotoxicity and % control.

rice (S102, M104, M206) = test: Pot study, phytotoxicity on rice plants; format: in vivo; conditions: three rice cultivars (S102, M104, M206); 0.05-0.4 mg/mL; each evaluation time point (5, 12, 21 days)
Method: as §2

CN1C(=O)[C@](O)(Cc2cccc(O)c2)N(C)C(=O)[C@@H]1Cc1c[nH]c2cccc([N+](=O)[O-])c12 [thaxtomin A]
% control (CYI; 64 g/ha): 45%
% control (CYI; 125 g/ha): 45%
% control (CYI; 250 g/ha): 95%
% control (CYI; 500 g/ha): 100%
% control (CYI; 1000 g/ha): 100%
% control (LEF; 64 g/ha): 0%
% control (LEF; 125 g/ha): 50%
% control (LEF; 250 g/ha): 60%
% control (LEF; 500 g/ha): 70%
% control (LEF; 1000 g/ha): 100%
% control (ECC; 64 g/ha): 0%
% control (ECC; 125 g/ha): 0%
% control (ECC; 250 g/ha): 35%
% control (ECC; 500 g/ha): 60%
% control (ECC; 1000 g/ha): 60%
% control (AMM; 64 g/ha): 0%
% control (AMM; 125 g/ha): 30%
% control (AMM; 250 g/ha): 90%
% control (AMM; 500 g/ha): 100%
% control (AMM; 1000 g/ha): 100%
% control (SCM; 64 g/ha): 0%
% control (SCM; 125 g/ha): 30%
% control (SCM; 250 g/ha): 30%
% control (SCM; 500 g/ha): 70%
% control (SCM; 1000 g/ha): 95%
growth reductions to direct-seeded rice (direct-seeded rice): only slight growth reductions
% control (Echinochloa colonum): 90-100%
control of common water plantain (Alisma plantago-aquatica; 0.2 mg/ml): complete control
% control (Alisma plantago-aquatica; 5 DAYS, 0.05 mg/mL in 4% ethanol): 8a %
% control (Alisma plantago-aquatica; 5 DAYS, 0.1 mg/mL in 4% ethanol): 28ab %
% control (Alisma plantago-aquatica; 5 DAYS, 0.2 mg/mL in 4% ethanol): 40b %
% control (Alisma plantago-aquatica; 5 DAYS, 0.4 mg/mL in 4% ethanol): 62b %
% control (Alisma plantago-aquatica; 12 DAYS, 0.05 mg/mL in 4% ethanol): 40b %
% control (Alisma plantago-aquatica; 12 DAYS, 0.1 mg/mL in 4% ethanol): 43b %
% control (Alisma plantago-aquatica; 12 DAYS, 0.2 mg/mL in 4% ethanol): 87c %
% control (Alisma plantago-aquatica; 12 DAYS, 0.4 mg/mL in 4% ethanol): 87c %
% control (Alisma plantago-aquatica; 21 DAYS, 0.05 mg/mL in 4% ethanol): 83b %
% control (Alisma plantago-aquatica; 21 DAYS, 0.1 mg/mL in 4% ethanol): 70b %
% control (Alisma plantago-aquatica; 21 DAYS, 0.2 mg/mL in 4% ethanol): 100c %
% control (Alisma plantago-aquatica; 21 DAYS, 0.4 mg/mL in 4% ethanol): 98c %
phytotoxicity in rice cultivars (rice (S102, M104, M206)): no phytotoxicity
